Laboratory results from article PMC2854131 (PLoS ONE, 2010).
Read-outs that look alike come from different tables or passages of the source.

Tests used:
[1] = target: T1, recombinant BoNTAe (BoNTA endopeptidase) (Clostridium botulinum, UniProt P0DPI0); settings: cited from earlier work
BoNTA = BoNTA (Clostridium botulinum, UniProt P0DPI0); set-up: species or system Balb/c mice; settings: mouse, in vivo
physchem = settings: water
in vivo = settings: Balb/c, mouse, ip, 2 mg/kg
[2] = Balb/c, mouse, in vivo, ip, 2 mg/kg
[3] = target: T1, recombinant BoNTAe (BoNTA endopeptidase); assay: biochemical; settings: read-out: % BoNTAe inhibition
[4] = mouse, in vivo

SMILES	Ki ([1]; read-out: Ki^app) [µM]	survival during the 12-hour period after the BoNTA challenge, in words (BoNTA)	treated mice that died 48 hours after the toxin challenge (BoNTA) [%]	solubility (physchem) [mM]	AUC(0-t) (in vivo) [ng·h/mL]	Cmax (in vivo) [ng/mL]	half-life (in vivo; T1/2) [h]	half-life (in vivo; in vivo half-life (t1/2)) [h]	C24 (concentration 24 hours after one dose) [2] [ng/mL]	inhibition at 20 µM [3] [%]	acute toxicity to mice, in words [4]	protection (survival) of mice 24 hours after the toxin challenge (BoNTA) [%]	protection (survival) of mice 48 hours after the toxin challenge (BoNTA) [%]	protection (survival) of mice during the 12-hour period after the toxin challenge (BoNTA) [%]	serotype specificity of BoNTAe inhibition, in words [1]	Ki ([1]; read-out: Ki app) [µM]
NCCCCn1c(-c2ccccc2)cc2ccc(C(=O)c3cc(CC(=O)NO)c(-c4ccccc4)s3)cc21 [APH, reference compound]	7	–	–	–	–	–	–	–	–	–	–	–	–	–	–	–
NCCCCn1c(-c2ccccc2)c(F)c2ccc(C(=O)c3cc(CC(=O)NO)c(-c4cccc(N)c4)s3)cc21 [Inhibitor F3A, 2-(5-(1-(4-Aminobutyl)-3-fluoro-2-phenyl-1H-indole-6-carbonyl)-2-(3-aminophenyl)thiophen-3-yl)-N-hydroxyacetamide]	–	all mice treated with any of the three inhibitors survived	90	≥ 5	1390	256	6.25	~6	7.0	47 ± 1	no acute toxicity	–	–	–	–	–
NCCCCn1c(-c2ccccc2)c(F)c2ccc(C(=O)c3cc(CC(=O)NO)c(-c4ccc(O)cc4)s3)cc21 [Inhibitor F4H, 2-(5-(1-(4-Aminobutyl)-3-fluoro-2-phenyl-1H-indole-6-carbonyl)-2-(4-hydroxyphenyl)thiophen-3-yl)-N-hydroxyacetamide]	–	all mice treated with any of the three inhibitors survived	40	≥ 5	1390	738	6.5	~6	<0.5	82 ± 6	no acute toxicity	70	60	100	–	–
NCCCCn1c(-c2ccccc2)cc2ccc(C(=O)c3cc(CC(=O)NO)c(-c4cccc(O)c4)s3)cc21 [Inhibitor H3H]	4	all mice treated with any of the three inhibitors survived	40	–	1550	497	4.35	~4	3.0	78 ± 4	no acute toxicity	–	–	–	serotype-specific	3.8 ± 0.77
